The CheMixHub ionic liquid set

Test: xn = mol fraction of the nth substance listed

CCCC[n+]1ccccc1.F[B-](F)(F)F + CCCC[n+]1ccccc1.O=S(=O)([N-]S(=O)(=O)C(F)(F)F)C(F)(F)F
101 kPa, x2 = 0
Conditions	viscosity [mPa·s]
303.15 K	123.6
353.15 K	17.7

COCCOCCOC + CCCC[n+]1ccn(C)c1.F[B-](F)(F)F
100 kPa
Conditions	viscosity [mPa·s]
283.15 K, x2 = 0.05926	2.33
283.15 K, x2 = 0.1017	2.93
283.15 K, x2 = 0.193	4.788
283.15 K, x2 = 0.2925	8.04
283.15 K, x2 = 0.3989	14.34
283.15 K, x2 = 0.4972	23.78
283.15 K, x2 = 0.5761	35.48
283.15 K, x2 = 0.6977	62.63
283.15 K, x2 = 0.7915	93.5
283.15 K, x2 = 0.8978	151.1
283.15 K, x2 = 0.9426	187.3
293.15 K, x2 = 0.05427	1.895
293.15 K, x2 = 0.1026	2.374
293.15 K, x2 = 0.195	3.051
293.15 K, x2 = 0.2987	6.258
293.15 K, x2 = 0.3891	9.33
293.15 K, x2 = 0.4902	16.39
293.15 K, x2 = 0.5631	22.79
293.15 K, x2 = 0.6762	35.31
293.15 K, x2 = 0.7902	55.27
293.15 K, x2 = 0.8969	86
293.15 K, x2 = 0.9436	103.9
303.15 K, x2 = 0.04967	1.214
303.15 K, x2 = 0.05867	1.133
303.15 K, x2 = 0.1027	1.519
303.15 K, x2 = 0.1925	2.927
303.15 K, x2 = 0.2857	4.426
303.15 K, x2 = 0.4003	7.339
303.15 K, x2 = 0.4952	10.86
303.15 K, x2 = 0.5755	15.38
303.15 K, x2 = 0.6993	24.97
303.15 K, x2 = 0.7943	35.15
303.15 K, x2 = 0.8999	51.8
303.15 K, x2 = 0.9387	59.7
313.15 K, x2 = 0.08858	1.238
313.15 K, x2 = 0.168	1.472
313.15 K, x2 = 0.2583	2.155
313.15 K, x2 = 0.3563	3.486
313.15 K, x2 = 0.4578	5.566
313.15 K, x2 = 0.5473	8.36
313.15 K, x2 = 0.6683	12.94
313.15 K, x2 = 0.7655	18.99
313.15 K, x2 = 0.8894	28.19
313.15 K, x2 = 0.9307	31.25

COCCOCCOC + CCCC[n+]1ccn(C)c1.F[P-](F)(F)(F)(F)F
100 kPa
Conditions	viscosity [mPa·s]
283.15 K, x2 = 0.2056	7.206
283.15 K, x2 = 0.5857	63.81
283.15 K, x2 = 0.8057	237.7
283.15 K, x2 = 0.8992	407
293.15 K, x2 = 0.1028	2.611
293.15 K, x2 = 0.4923	23.24
293.15 K, x2 = 0.5839	39.17
293.15 K, x2 = 0.9523	295.7
303.15 K, x2 = 0.0572	1.283
303.15 K, x2 = 0.3956	8.98
303.15 K, x2 = 0.7842	65.7
313.15 K, x2 = 0.3979	4.083
313.15 K, x2 = 0.5861	13.01

COCCOCCOC + CCCC[n+]1ccn(C)c1.O=S(=O)([N-]S(=O)(=O)C(F)(F)F)C(F)(F)F
Conditions	electrical conductivity [S/m]
294.5 K, 100 kPa, x2 = 0.03433	0.44

NC(N)=NCCC[C@H](N)C(=O)O + CCCC[n+]1ccn(C)c1.[Br-] + O
viscosity [mPa·s], 101.3 kPa
Conditions	293.15 K	298.15 K	303.15 K	308.15 K	313.15 K
x1 = 0.000359, x2 = 0	1.013	0.904	0.839	0.771	0.691
x1 = 0.0003655, x2 = 0.00072	1.037	0.922	0.833	0.754	0.688
x1 = 0.0003655, x2 = 0.001439	1.058	0.914	0.816	0.744	0.675
x1 = 0.0007208, x2 = 0	1.025	0.915	0.851	0.783	0.703
x1 = 0.0007266, x2 = 0.0007198	1.048	0.933	0.844	0.766	0.7
x1 = 0.0007324, x2 = 0.001438	1.069	0.925	0.827	0.756	0.686
x1 = 0.001079, x2 = 0	1.036	0.927	0.863	0.795	0.715
x1 = 0.001088, x2 = 0.0007195	1.059	0.944	0.855	0.777	0.712
x1 = 0.001098, x2 = 0.001438	1.08	0.936	0.838	0.767	0.698
x1 = 0.001446, x2 = 0	1.047	0.938	0.874	0.806	0.726
x1 = 0.001452, x2 = 0.0007192	1.07	0.955	0.866	0.788	0.723
x1 = 0.001462, x2 = 0.001437	1.091	0.947	0.849	0.778	0.709
x1 = 0.001811, x2 = 0.000719	1.081	0.966	0.877	0.799	0.734
x1 = 0.00182, x2 = 0	1.059	0.949	0.885	0.817	0.737
x1 = 0.001827, x2 = 0.001437	1.102	0.958	0.86	0.789	0.72
x1 = 0.002121, x2 = 0.001436	1.114	0.97	0.872	0.801	0.732
x1 = 0.002158, x2 = 0	1.073	0.961	0.897	0.829	0.749
x1 = 0.002174, x2 = 0.0007187	1.093	0.978	0.889	0.811	0.746
x1 = 0.002516, x2 = 0	1.087	0.975	0.911	0.843	0.763
x1 = 0.002537, x2 = 0.0007185	1.106	0.991	0.902	0.824	0.759
x1 = 0.002557, x2 = 0.001436	1.127	0.983	0.885	0.814	0.745

[Cl][Zn][Cl] + CCCC[n+]1ccn(C)c1.[Cl-]
303.15 K, 100 kPa
Conditions	electrical conductivity [S/m]
x2 = 0.333	0.00188
x2 = 0.5	0.0237
x2 = 0.666	0.0171
